Test results from PMC4026528 (PLoS ONE, 2014).

Key:
Type in all cases: cell-based, human
[1] = tested on: Wnt target gene mRNA in HT-1080 cells; assay: Quantitative RT-PCR of Wnt target genes in HT-1080; conditions: HT-1080, overnight, 10 µmol/L
Description: RNA extraction and quantitative RT-PCR (qPCR) expression analysis was performed as described previously. Gene expression analysis was performed using the human housekeeping gene RPL13A. Primers for the hAXIN2, hCDC25A, hc-MYC, hFZD4, hDVL2, hCSNK1G and hVEGF-A were the following: Fw: 5′-CAAGGGCCAGGTCACCAA-3′ Rv: 5′-CCCCCAACCCATCTTCGT-3′; Fw: 5′-[…]-3′ Rv: 5′-[…]-3′; Fw: 5′-GGCTCCTGGCAAAAGGTCA-3′ Rv: 5′-[…]-3′; Fw: 5′-[…]-3′ Rv: 5′-[…]-3′; Fw: 5′-[…]-3′ Rv: 5′-GTCTCCCCGCTCATTGCTC-3′; Fw: 5′-[…]-3′ Rv: 5′-[…]-3′; Fw: 5′-[…]-3′ Rv: 5′-[…]-3′.

[2] = tested on: Axin1, c-Myc, p21 protein in HT-1080 cells; assay: Western blotting in HT-1080; conditions: HT-1080, overnight
[3] = tested on: HT-1080 (fibrosarcoma) cells; assay: Soft agar assay (anchorage-independent growth), HT-1080; conditions: Homo sapiens
Description: (§1) Soft agar assay and analysis was carried out as previously described. For scratch assay, confluent monolayer of U2OS and HT-1080 cells were subjected to scratch using a sterile pipette tip. Wounded monolayers were washed to remove debris and incubated with SEN461 at different concentrations for 20 hours. After the incubation period, images were taken under an Axiovert 200M (Zeiss) microscope equipped with a CCD camera, and the gap width was measured using MetaMorph 6.3 software (Universal Imaging Corp.) to calculate the area covered by cells (pixels unit). The tube formation assay was performed using growth factor-reduced Matrigel from BD (BD Biosciences; San Jose, CA, USA). Matrigel was thawed overnight at 4°C and was diluted (1∶1) with phenol red-free DMEM without serum. 100 µl of the diluted matrigel was used to coat the wells of a 96 well plate and was allowed to polymerize for 2 hours at 37°C. After equilibrating the gel with the complete growth medium, 15×10^3 cells were seeded in each well and incubated for 20 hours. The tube formation was monitored under a phase contrast microscope (Axiovert 200, Zeiss) and imaged using MetaMorph system (Universal Imaging Corp).

[4] = tested on: U2OS (osteosarcoma) cells; assay: Soft agar assay (anchorage-independent growth), U2OS; conditions: Homo sapiens
Description: as §1

[5] = tested on: HT-1080 cells; assay: Tube formation assay, HT-1080
Description: as §1, with “After equilibrating the gel with the complete growth medium, 15×10^3 cells were seeded in each well and incubated for 20 hours.” left out

IC50 [3] [nM] | IC50 [4] [nM] | SMILES | c-MYC mRNA [1] | c-Myc protein level [2] | tubule-formation activity ([5]; HT-1080, 24 hours exposure, vs DMSO) | tubule-formation activity ([5]; HT-1080, 3 µmol/L, data not shown)
1900 | 200 | Oc1nc(-c2ccc(C(F)(F)F)cc2)nc2c1CSCC2 [XAV939, reference compound] | comparable activity | did not affect c-Myc protein level | did not produce any change | 
 |  | Cc1ccc(C(=O)Nc2ccc(S(=O)(=O)O)c3cc(S(=O)(=O)O)cc(S(=O)(=O)O)c23)cc1NC(=O)c1cccc(NC(=O)Nc2cccc(C(=O)Nc3cc(C(=O)Nc4ccc(S(=O)(=O)O)c5cc(S(=O)(=O)O)cc(S(=O)(=O)O)c45)ccc3C)c2)c1 [Suramin] |  |  |  | complete abrogation of tubule formation
